Results published in patent US20210161825A1, “CHLOROQUINE-BASED MATERIALS FOR THE TREATMENT OF DISEASES” (BOARD OF REGENTS OF THE UNIVERSITY OF NEBRASKA, priority 2018, published 2021).

Assays:
[1] = Colon pharmacokinetics and distribution after single oral dose in colitis mice; type: in vivo; settings: male, C57BL/6, mouse, single oral dose 30 mg/kg CQ equivalent, pCQ = total HCQ
Protocol: (§1) Male C57BL/6 mice (6 weeks old, 18-20 g) were obtained from Charles River Laboratories and used for all in vivo studies. All animal experiments were conducted according to the protocol approved by the University of Nebraska Medical Center Institutional Animal Care and Use Committee. C. rodentium was used to induce colitis in mice. Bacterial glycerol stock was streaked onto LB agar plates and the bacterial colonies were grown overnight at 37° C. A single colony was inoculated into 5 ml of 2% LB broth and incubated at 37° C., 280 rpm overnight to obtain a saturated primary culture. On the day of the experiment (Day 0), 2 ml of the primary culture was added into 300 ml of LB broth and the inoculum was placed on a shaker at 37° C. at 280 rpm for 6 hours. Bacterial optical density was measured at 600 nm. Bacteria were diluted with LB broth and delivered to mice (n=15) via oral gavage in a 100 μL volume containing 5×10^8 colony forming units (CFU). Healthy control group (n=5) was orally administered 100 μL of LB broth.
(§2) The pharmacokinetics and biodistribution of single dose pCQ was evaluated in a mouse model of IBD. Colitis was induced as described above and on day 14, mice were given a single dose of HCQ or pCQ in 200 μl of deionized water via oral gavage equivalent to 30 mg/kg HCQ. Blood was collected from the submandibular vein at 0.5, 1, 2, 4, 8, and 24 h post-administration. The animals were sacrificed, and organs harvested at 0.5, 2, 8, and 24 h post-administration and stored at −80° C. until further use. The mice were randomized to selected sampling times so that three blood samples and one terminal tissue collection were obtained from each.
(§3) Blood, tissue and fecal samples were processed by two methods to determine free HCQ and total HCQ. For the first method, HCQ was isolated by a simple extraction from the organs as described in Murry et al., J. Chrom. B., (2018) 1072, 320-327. The second method utilized base hydrolysis to release HCQ covalently bound to pCQ and subsequent HCQ extraction using solid phase extraction (SPE). Tissues and feces were homogenized in water prior to loading to the SPE cartridge. The calibration and quality control samples were separately prepared for HCQ and pCQ by spiking 10 μl of appropriate calibration stock of HCQ and pCQ, in 100 μl of blank biomatrix, and 10 μl of internal standard solution (1.0 μg/ml) added. For the study, 25 μl of blood and 100 μl of tissue homogenate were used. 400 μl of 1 M NaOH, 600 μl water and 100 μl methanol were added and the samples were incubated at 50° C. for 1 h to hydrolyze HCQ from the pCQ. […]
(§4) The pharmacokinetic parameters of HCQ and pCQ in blood and tissues were calculated using non-compartmental analysis with Phoenix WinNonlin 6.3 (Pharsight Corporation). […]

[2] = test system: mice with C. rodentium colitis; assay: Therapeutic efficacy, colon histology (H&E) in C. rodentium colitis; type: in vivo, mouse; settings: oral gavage every other day, 30 mg/kg HCQ equivalent, vs untreated
Protocol: Male C57BL/6 mice (6 weeks old, 18-20 g) were obtained from Charles River Laboratories and used for all in vivo studies. All animal experiments were conducted according to the protocol approved by the University of Nebraska Medical Center Institutional Animal Care and Use Committee. C. rodentium was used to induce colitis in mice. Bacterial glycerol stock was streaked onto LB agar plates and the bacterial colonies were grown overnight at 37° C. A single colony was inoculated into 5 ml of 2% LB broth and incubated at 37° C., 280 rpm overnight to obtain a saturated primary culture. […] Bacterial optical density was measured at 600 nm. […]
The longitudinally opened colons were rolled into a Swiss roll from distal to proximal end. […] The stained sections were evaluated by a pathologist without the knowledge of the identity of the samples using a light microscope. […] Crypt heights were measured using ImageJ software, with 10 measurements taken in distal colons of each mouse. Only well-oriented and intact crypts were measured. […] CC3 positive cells in the entire colon roll were counted at 20× magnification. Results were expressed as mean CC3 positive cells per entire colon roll. CD68 positive cells were counted in five randomly chosen areas in the colon roll at high power field (HPF). Results were expressed as mean of CD68 positive cells per HPF.

[3] = test system: IL-6; assay: Colon cytokine mRNA by RT-PCR, IL-6; type: in vivo, mouse; settings: seven oral doses over 14 days; vs untreated
Protocol: (§5) Colitis was induced as stated above and mice were randomly assigned to healthy, HCQ, and pCQ treatment groups (n=5) and untreated group (n=8). Starting day 1, the mice received oral gavage of either HCQ or pCQ every other day (30 mg/kg HCQ equivalent in 200 μl sterile deionized water). Untreated and healthy controls were administered 200 μl sterile deionized water. On day 14, the mice were sacrificed and the colons were harvested. The colon was opened longitudinally, cleaned of fecal matter, and excised into two parts along the length, which were stored accordingly for determination of cytokine mRNA levels by RT-PCR and histological analysis.
(§6) Colon samples from the therapeutic study were stored in RNAlater™ (Thermo Fisher Scientific Inc.) at 4° C. for 48 hours to allow sufficient time for tissue penetration followed by removal of excess solution. The tissues were then stored at −80° C. until further processing. […] The extracted mRNA was quantified using Nanodrop Onec UV-Vis spectrophotometer (Thermo Fisher Scientific Inc.). […] A volume corresponding to 1 μg of RNA as determined by UV spectrometer was used for cDNA synthesis. […] Results obtained from the RT-PCR were analyzed by Ct method to determine the fold change in gene expression.

[4] = Blood pharmacokinetics after single oral dose in C. rodentium colitis mice; type: in vivo, mouse; settings: for Cmax: pCQ = total (polymer-bound + hydrolyzed) HCQ
Protocol: as §1, §2
Blood, tissue and fecal samples were processed by two methods to determine free HCQ and total HCQ. For the first method, HCQ was isolated by a simple extraction from the organs as described in Murry et al., J. Chrom. B., (2018) 1072, 320-327. The second method utilized base hydrolysis to release HCQ covalently bound to pCQ and subsequent HCQ extraction using solid phase extraction (SPE). Tissues and feces were homogenized in water prior to loading to the SPE cartridge. The calibration and quality control samples were separately prepared for HCQ and pCQ by spiking 10 μl of appropriate calibration stock of HCQ and pCQ, in 100 μl of blank biomatrix, and 10 μl of internal standard solution (1.0 μg/ml) added. For the study, 25 μl of blood and 100 μl of tissue homogenate were used. 400 μl of 1 M NaOH, 600 μl water and 100 μl methanol were added and the samples were incubated at 50° C. for 1 h to hydrolyze HCQ from the pCQ. Subsequently, 400 μ12% formic acid was added and the samples were vortexed for 30 s and centrifuged at 1301×g for 10 min. The SPE was carried out using Oasis HLB 3cc, 60 mg extraction Cartridge (Waters, Inc). Cartridges were pre-conditioned with 1 ml acetonitrile followed by 1 ml water. Samples were loaded to the cartridges and washed with 2 ml of aqueous 15% methanol and dried at high vacuum for 15 min. Analytes were eluted with 2 ml of acetonitrile. The eluents were collected in glass tubes and dried under nitrogen in water bath at 50° C. The dry residues were reconstituted in 400 μ1 0.1% formic acid:methanol mixture (60:40) and centrifuged at 13000×g and 10 μl supernatant was injected into the HPLC. The LC-MS/MS conditions were as previously described. (Murry et al., J. Chrom. B., (2018) 1072, 320-327.) The assay was linear over the range of 1 to 2000 ng/mL.
The pharmacokinetic parameters of HCQ and pCQ in blood and tissues were calculated using non-compartmental analysis with Phoenix WinNonlin 6.3 (Pharsight Corporation). The maximum concentration (Cmax) and time to Cmax (Tmax) were obtained from the visual inspection of the concentration-time plot. […]

[5] = Liver pharmacokinetics and distribution after single oral dose in colitis mice; type: in vivo; settings: male, C57BL/6, mouse, single oral dose 30 mg/kg CQ equivalent, pCQ = total HCQ
Protocol: as §1, §2, §3, §4

[6] = test system: CD68 positive cells; assay: Macrophage infiltration in the colon (CD68 staining); type: in vivo, mouse; settings: oral gavage every other day, 30 mg/kg HCQ equivalent, day 14; vs untreated
Protocol: as §5

[7] = test system: IL-2; assay: Colon cytokine mRNA by RT-PCR, IL-2; type: in vivo, mouse; settings: seven oral doses over 14 days; vs untreated
Protocol: as §5, §6

[8] = male, C57BL/6, mouse, whole blood, blood, single oral dose 30 mg/kg HCQ equivalent, colitis mice, pCQ = total HCQ

Q: What does the source list for CCN(CCO)CCCC(C)Nc1ccnc2cc(Cl)ccc12 (centres unmarked) [HCQ, Hydroxychloroquine]?
A: AUC(0-inf) [1]: 209 µg·h/mL; AUC(0-t) [1]: 166 µg·h/mL; Cmax [1]: 10300 ng/mL; Tmax [1]: 8 h; colon crypt length ([2]; day 14): significantly reduced; colon inflammation and epithelial injury (H&E) ([2]; sacrifice day 14): reduced the colon inflammation and eased the epithelial injury; colon IL-6 expression (mRNA) [3]: statistically significant reduction; Cmax ([4]; blood, single oral dose 30 mg/kg HCQ equivalent, colitis mice, 30 mg/kg): 2,343 ± 46 ng/ml; AUC0-∞ ([4]; blood, single oral dose 30 mg/kg HCQ equivalent, colitis mice, pCQ = total HCQ, 30 mg/kg): 28,182 ± 1476^ h × ng/ml; bioavailability ([4]; male, C57BL/6, mouse, whole blood, 30 mg/kg, oral vs i.v., read-out: absolute bioavailability (oral to i.v.)): 80%; Cmax ([4]; male, C57BL/6, mouse, whole blood, po, 30 mg/kg, blood, single oral dose 30 mg/kg HCQ equivalent, colitis mice, read-out: Cmax): 2340 ng/mL; AUC(0-inf) ([4]; male, C57BL/6, mouse, whole blood, po, 30 mg/kg, blood, single oral dose 30 mg/kg HCQ equivalent, colitis mice, pCQ = total HCQ): 28200 ng·h/mL; AUC(0-t) [4, 8]: 26400 ng·h/mL; CL/F [4, 8]: 18.3 mL/min/kg; MRT [4, 8]: 6.8 ± 0.6 h; Tmax [4, 8]: 3.3 ± 1.2 h; half-life [4, 8]: 336 ± 114 min; AUC(0-inf) [5]: 176 µg·h/mL; AUC(0-t) [5]: 168 µg·h/mL; Cmax [5]: 12800 ng/mL; Tmax [5]: 2 h; macrophage infiltration (CD68 positive cells per HPF) [6]: statistically significant reduction; colon IL-2 expression (mRNA) [7]: upregulated
